From ChEMBL document CHEMBL1201862, “PubChem BioAssay data set” (2004)
Activity calls are given as the source filed them.

Legend:
[1] = luciferase reporter signal suppression in cells – H4 neuroglioma cells, luminescence, dose response (AID 1990); format: functional, cell-based
[2] = Luminescence Cell-Based Dose Response HTS to Identify Inhibitors of 5'UTR Stem-Loop Driven Prion Protein mRNA Translation in H4 Neuroglioblastoma Cells. [Related pubchem assays: 1827 (Project Summary), 1813 (Primary HTS)]; format: functional
[3] = alpha-synuclein stem-loop luciferase translation blockers – H4 neuroglioma cells, luminescence, confirmation (AID 1988); format: functional, cell-based
[4] = mitochondrial function rescue without frataxin homolog – Friedreich's ataxia, plus single-dose screen, dose response (AID 1465); format: functional;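 note: yeast depleted of Yfh1p frataxin homolog grown on glycerol needing respiration; WST-1 tetrazolium dye reduction as measure of cellular dehydrogenase metabolic activity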
[5] = biological target: T1, Microphthalmia-associated transcription factor (Homo sapiens, UniProt O75030); test: reducers of TRPM1 reporter luminescence, concentration series – cell-based, SK-MEL-5, cherry-picked, set 3, MITF inhibitor project, dose response (AID 493073); format: functional;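 note: SK-MEL-5 melanoma cells with luciferase driven by the MITF target TRPM1 promoter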
T1 sequence (O75030 whole entry): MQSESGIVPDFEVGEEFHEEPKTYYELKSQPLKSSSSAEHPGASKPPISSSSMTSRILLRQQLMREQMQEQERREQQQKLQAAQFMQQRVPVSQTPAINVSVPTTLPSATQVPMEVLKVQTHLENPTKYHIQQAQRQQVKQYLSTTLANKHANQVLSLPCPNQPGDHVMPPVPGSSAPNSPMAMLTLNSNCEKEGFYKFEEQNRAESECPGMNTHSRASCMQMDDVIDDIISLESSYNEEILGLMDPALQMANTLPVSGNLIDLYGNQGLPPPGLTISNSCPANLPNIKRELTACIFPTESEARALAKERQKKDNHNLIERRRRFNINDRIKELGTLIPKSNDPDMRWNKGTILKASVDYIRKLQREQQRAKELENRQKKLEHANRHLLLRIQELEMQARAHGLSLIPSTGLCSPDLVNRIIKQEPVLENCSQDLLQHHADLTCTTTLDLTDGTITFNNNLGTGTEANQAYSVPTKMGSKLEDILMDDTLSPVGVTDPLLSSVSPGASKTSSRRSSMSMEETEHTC

[6] = biological target: 26S proteasome non-ATPase regulatory subunit 14 (Homo sapiens, UniProt O00487); test: inhibition of proteasome subunit RPN11 – biochemical, fluorescence polarization, uHTS hits, confirmation (AID 602368); format: functional
[7] = biological target: 72 kDa type IV collagenase (Homo sapiens, UniProt P08253); test: Dose Response validation of uHTS RPN11 inhibitor hits using a MMP-2 Fluorescence assay.; format: functional
[8] = biological target: Prothrombin (Bos taurus, UniProt P00735); test: thrombin protease inhibitors – biochemical, fluorescence polarization, uHTS hits, dose response (AID 602369); format: functional
[9] = NIH-3T3 fibroblast cytotoxicity, dose response, cytotoxicity control, cell-based, fluorescence, Alamar Blue, secondary assay (AID 2327); format: functional;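 note: NIH-3T3 mouse fibroblasts cultured with fluconazole at 8 µg/mL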
[10] = tested on: HeLa; test: Cytotoxicity counterscreen assay for transcriptional activators of heat shock protein 70 (Hsp70). [Related pubchem assays: 1203, 1252 ]; format: functional; settings: Homo sapiens;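 note: cells exposed to compound for 16 hours before readout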
[11] = fluconazole-exposed Candida albicans growth modulators – fluorescence, retest, confirmation (AID 2467); format: functional, cell-based
[12] = HPDE-C7 pancreatic duct cell viability loss – fluorescence, HTS (AID 430); format: functional, cell-based; settings: Homo sapiens
[13] = viability loss of HPDE-C7K cells – cell-based, fluorescence, HTS, primary screen (AID 431); format: functional; settings: Homo sapiens
[14] = biological target: Serine/threonine-protein phosphatase (Candida dubliniensis (strain CD36 / CBS 7987 / NCPF 3949 / NRRLY-17841) (Yeast), UniProt B9W6M3); test: blockers of CaCl2-induced CDRE-lacZ signaling – S. cerevisiae, luminescence, secondary, dose response (AID 2388); format: functional, cell-based;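 note: yeast reporter cells carrying a calcineurin-responsive lacZ construct stimulated with calcium chloride; luminescent beta-galactosidase reporter signal in whole cells rather than isolated phosphatase activity; potency for inhibition where a drop in reporter signal means calcineurin blockade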
[15] = biological target: Induced myeloid leukemia cell differentiation protein Mcl-1 (Homo sapiens, UniProt Q07820); format: functional
[16] = biological target: T2, Heat shock factor protein 1 (Mus musculus, UniProt P38532); test: enhancement of HSF1-driven luciferase signal – cell-based, NIH3T3, luminescence, dose retest, confirmation (AID 435004); format: functional;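 note: stress induced by proteasome inhibitor MG132 added 30 min after compound; luciferase reporter driven by HSF1 response element in NIH3T3 cells; actives raise luminescence as potentiators of the MG132 stress response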
T2 sequence (P38532 whole entry): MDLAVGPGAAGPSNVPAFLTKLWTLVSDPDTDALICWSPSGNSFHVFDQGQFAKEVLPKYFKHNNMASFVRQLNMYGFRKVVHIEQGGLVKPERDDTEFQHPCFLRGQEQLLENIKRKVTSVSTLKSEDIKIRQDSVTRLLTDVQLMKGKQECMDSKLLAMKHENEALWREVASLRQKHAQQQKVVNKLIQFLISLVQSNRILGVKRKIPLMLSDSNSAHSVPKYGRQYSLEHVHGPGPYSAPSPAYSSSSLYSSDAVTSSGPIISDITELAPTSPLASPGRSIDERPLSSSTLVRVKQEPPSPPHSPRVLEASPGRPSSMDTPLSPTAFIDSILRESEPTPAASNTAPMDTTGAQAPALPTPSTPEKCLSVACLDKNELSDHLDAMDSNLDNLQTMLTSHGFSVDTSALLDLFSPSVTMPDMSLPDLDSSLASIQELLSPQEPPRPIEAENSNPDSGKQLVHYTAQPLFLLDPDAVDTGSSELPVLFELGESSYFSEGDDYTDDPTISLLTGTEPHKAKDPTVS

[17] = biological target: ATP-dependent molecular chaperone HSP82 (Candida albicans (strain WO-1) (Yeast), UniProt C4YTQ8); test: steroid-induced GRE reporter decrease in yeast – S. cerevisiae, luminescence, Hsp90 inhibitor project, dose response (AID 2400); format: functional, cell-based;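 note: beta-galactosidase luminescence from glucocorticoid response element reporter as proxy for Hsp90 function; inhibitor potency where signal loss means Hsp90 inhibition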
[18] = biological target: T3, Sphingosine 1-phosphate receptor 4 (Homo sapiens, UniProt O95977); test: Fluorescence dose response cell-based high throughput screening assay for antagonists of the Sphingosine 1-Phosphate Receptor 4 (S1P4). [Related pubchem assays: 1524 (Confirmation in triplicates.), 1510 (Primary screen.)]; format: functional
T3 sequence (O95977 whole entry): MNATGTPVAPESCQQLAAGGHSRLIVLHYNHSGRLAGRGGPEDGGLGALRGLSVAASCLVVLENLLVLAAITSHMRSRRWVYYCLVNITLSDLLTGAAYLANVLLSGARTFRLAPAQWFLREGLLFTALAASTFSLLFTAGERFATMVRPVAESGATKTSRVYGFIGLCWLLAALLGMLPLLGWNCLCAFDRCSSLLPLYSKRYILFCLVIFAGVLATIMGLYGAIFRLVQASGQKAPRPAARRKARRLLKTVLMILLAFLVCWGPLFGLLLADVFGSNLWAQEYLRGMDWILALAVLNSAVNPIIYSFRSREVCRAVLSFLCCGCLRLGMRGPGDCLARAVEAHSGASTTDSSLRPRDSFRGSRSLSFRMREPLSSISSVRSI

[19] = biological target: Sphingosine 1-phosphate receptor 1 (Homo sapiens, UniProt P21453); format: functional;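 note: Tango beta-arrestin reporter U2OS cells stimulated with S1P near its EC80; inhibitor potency meaning antagonism of receptor activation by the natural agonist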
[20] = biological target: T4, Replicative DNA helicase DnaB (Mycobacterium tuberculosis, UniProt P9WMR3); test: DnaB intein splicing inhibitors, dose response, biochemical, cell-free fluorescence (AID 449749); format: functional
T4 sequence (P9WMR3 whole entry): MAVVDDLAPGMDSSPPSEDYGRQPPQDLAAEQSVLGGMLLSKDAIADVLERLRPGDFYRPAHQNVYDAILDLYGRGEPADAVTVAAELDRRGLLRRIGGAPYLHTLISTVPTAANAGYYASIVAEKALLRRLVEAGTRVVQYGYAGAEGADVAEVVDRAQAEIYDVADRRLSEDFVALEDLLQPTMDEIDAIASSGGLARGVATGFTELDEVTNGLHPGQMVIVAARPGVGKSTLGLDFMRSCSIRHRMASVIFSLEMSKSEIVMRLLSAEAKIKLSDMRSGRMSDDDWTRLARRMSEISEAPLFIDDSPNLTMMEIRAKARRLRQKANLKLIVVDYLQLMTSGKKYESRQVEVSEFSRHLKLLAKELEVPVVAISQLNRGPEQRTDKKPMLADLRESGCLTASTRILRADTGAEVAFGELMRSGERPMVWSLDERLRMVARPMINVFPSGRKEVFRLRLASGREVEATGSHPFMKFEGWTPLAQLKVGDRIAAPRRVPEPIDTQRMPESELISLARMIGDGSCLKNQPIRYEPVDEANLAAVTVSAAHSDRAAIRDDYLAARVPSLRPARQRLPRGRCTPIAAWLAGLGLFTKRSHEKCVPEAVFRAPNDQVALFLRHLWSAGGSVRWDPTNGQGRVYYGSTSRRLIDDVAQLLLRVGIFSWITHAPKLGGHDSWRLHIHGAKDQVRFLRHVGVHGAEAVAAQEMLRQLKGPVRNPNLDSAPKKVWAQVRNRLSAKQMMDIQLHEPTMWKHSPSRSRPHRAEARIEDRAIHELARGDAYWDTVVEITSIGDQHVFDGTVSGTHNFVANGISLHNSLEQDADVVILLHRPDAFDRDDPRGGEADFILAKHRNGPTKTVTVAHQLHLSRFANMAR

[21] = biological target: T5, Protein RecA (Mycobacterium tuberculosis, UniProt P9WHJ3); test: Fluorescence Cell-Free Homogeneous Dose Retest to Identify Inhibitors of RecA-Intein Splicing Activity. [Related pubchem assays (depositor defined):AID2097, AID2223, AID489010, AID492950]; format: functional
T5 sequence (P9WHJ3 whole entry): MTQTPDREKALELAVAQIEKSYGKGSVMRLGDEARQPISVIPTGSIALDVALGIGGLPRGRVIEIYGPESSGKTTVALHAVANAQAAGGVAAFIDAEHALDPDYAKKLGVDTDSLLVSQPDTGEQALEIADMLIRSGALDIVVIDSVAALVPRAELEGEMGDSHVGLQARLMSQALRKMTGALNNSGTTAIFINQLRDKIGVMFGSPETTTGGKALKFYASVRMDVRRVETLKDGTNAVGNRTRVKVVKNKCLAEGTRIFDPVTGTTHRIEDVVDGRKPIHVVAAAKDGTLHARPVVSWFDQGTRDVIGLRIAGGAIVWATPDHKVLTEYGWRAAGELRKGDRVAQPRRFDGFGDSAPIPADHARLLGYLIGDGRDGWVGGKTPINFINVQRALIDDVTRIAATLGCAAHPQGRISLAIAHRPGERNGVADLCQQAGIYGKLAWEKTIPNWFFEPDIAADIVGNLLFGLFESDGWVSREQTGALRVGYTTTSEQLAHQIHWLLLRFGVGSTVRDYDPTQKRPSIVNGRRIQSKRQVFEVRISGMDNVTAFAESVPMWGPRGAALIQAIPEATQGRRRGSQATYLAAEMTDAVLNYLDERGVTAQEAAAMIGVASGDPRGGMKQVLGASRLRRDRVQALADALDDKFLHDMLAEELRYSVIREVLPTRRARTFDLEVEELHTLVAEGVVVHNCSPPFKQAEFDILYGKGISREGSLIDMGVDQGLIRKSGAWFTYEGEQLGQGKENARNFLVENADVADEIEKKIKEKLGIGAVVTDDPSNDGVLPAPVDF

[22] = biological target: Beta-2 adrenergic receptor (Homo sapiens, UniProt P07550); test: ADRB2 activation measured by internalization – cell-based, FAP fluorogen, flow cytometry, cherry pick 1, dose response (AID 588763); format: functional
[23] = reduction of Shn3 3'UTR-driven luciferase in osteoblasts – cell-based, Clone20 osteoblasts, firefly luciferase, cherry-picked, dose response (AID 624132); format: functional;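 note: firefly luciferase luminescence from reporter carrying the Shn3 3'UTR in osteoblasts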
[24] = non-specific 3'UTR reporter inhibition in Clone20-Shn3RL – cell-based, Renilla luciferase, cherry-picked, counter-screen for Shn3 inhibitor project, dose response (AID 624133); format: functional
[25] = biological target: T6, Estrogen receptor (Homo sapiens, UniProt P03372); test: ERα coactivator recruitment enhancers – biochemical, TR-FRET, ERα LBD, dose response (AID 737)
T6 sequence (P03372 whole entry): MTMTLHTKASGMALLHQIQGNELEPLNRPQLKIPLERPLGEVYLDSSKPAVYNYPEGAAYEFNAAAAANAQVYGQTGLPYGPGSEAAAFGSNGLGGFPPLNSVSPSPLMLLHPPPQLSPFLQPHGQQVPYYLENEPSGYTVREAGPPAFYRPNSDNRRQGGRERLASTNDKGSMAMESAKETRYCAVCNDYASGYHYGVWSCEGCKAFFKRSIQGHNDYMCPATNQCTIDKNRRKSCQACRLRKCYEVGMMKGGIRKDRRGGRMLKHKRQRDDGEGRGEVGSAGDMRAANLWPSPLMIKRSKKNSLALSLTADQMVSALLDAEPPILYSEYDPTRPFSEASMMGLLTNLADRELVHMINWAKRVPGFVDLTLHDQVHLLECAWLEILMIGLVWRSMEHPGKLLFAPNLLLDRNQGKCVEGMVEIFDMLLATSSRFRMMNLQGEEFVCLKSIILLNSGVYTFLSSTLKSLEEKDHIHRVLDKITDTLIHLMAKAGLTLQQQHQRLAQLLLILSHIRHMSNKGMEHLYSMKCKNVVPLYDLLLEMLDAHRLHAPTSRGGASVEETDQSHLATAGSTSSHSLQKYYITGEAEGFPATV

[26] = biological target: ADP-ribosylation factor GTPase-activating protein 1 (Rattus norvegicus, UniProt Q62848); test: Fluorescence polarization-based biochemical high throughput dose response screening assay to identify inhibitors of ADP-ribosylation factor GTPase activating protein 1 (ARFGAP1).; format: functional
ADP-ribosylation factor GTPase-activating protein 1, sequence (Q62848 whole entry): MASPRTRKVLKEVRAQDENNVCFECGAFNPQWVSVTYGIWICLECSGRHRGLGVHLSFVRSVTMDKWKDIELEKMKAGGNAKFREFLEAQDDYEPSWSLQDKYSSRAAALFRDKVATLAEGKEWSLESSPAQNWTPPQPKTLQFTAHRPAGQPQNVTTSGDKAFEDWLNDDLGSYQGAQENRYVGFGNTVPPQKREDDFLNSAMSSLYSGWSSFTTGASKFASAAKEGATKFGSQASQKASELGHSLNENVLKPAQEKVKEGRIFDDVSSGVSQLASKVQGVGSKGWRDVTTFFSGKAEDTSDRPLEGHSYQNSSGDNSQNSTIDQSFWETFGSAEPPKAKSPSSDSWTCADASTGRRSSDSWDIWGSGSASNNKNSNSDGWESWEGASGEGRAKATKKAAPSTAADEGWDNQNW

Sphingosine 1-phosphate receptor 1, sequence (P21453 whole entry): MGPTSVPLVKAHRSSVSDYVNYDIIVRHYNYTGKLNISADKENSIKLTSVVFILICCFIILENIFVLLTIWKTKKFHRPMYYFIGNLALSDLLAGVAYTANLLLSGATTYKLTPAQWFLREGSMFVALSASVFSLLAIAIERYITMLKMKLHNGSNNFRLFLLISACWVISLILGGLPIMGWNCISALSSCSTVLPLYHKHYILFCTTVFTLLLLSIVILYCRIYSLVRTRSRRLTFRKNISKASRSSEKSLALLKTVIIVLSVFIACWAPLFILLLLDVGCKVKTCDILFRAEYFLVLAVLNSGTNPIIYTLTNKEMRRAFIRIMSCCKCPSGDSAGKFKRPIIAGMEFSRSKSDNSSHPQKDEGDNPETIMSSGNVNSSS
Induced myeloid leukemia cell differentiation protein Mcl-1, sequence (Q07820 whole entry): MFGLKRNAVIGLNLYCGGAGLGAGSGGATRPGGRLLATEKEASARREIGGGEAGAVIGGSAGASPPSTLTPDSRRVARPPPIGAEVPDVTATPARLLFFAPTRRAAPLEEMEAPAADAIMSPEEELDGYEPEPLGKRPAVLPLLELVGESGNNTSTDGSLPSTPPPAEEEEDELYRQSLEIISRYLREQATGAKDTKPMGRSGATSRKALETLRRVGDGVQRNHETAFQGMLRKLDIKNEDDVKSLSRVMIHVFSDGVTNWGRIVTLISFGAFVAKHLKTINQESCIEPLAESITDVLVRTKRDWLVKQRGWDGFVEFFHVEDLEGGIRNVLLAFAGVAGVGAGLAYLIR
72 kDa type IV collagenase, sequence (P08253 whole entry): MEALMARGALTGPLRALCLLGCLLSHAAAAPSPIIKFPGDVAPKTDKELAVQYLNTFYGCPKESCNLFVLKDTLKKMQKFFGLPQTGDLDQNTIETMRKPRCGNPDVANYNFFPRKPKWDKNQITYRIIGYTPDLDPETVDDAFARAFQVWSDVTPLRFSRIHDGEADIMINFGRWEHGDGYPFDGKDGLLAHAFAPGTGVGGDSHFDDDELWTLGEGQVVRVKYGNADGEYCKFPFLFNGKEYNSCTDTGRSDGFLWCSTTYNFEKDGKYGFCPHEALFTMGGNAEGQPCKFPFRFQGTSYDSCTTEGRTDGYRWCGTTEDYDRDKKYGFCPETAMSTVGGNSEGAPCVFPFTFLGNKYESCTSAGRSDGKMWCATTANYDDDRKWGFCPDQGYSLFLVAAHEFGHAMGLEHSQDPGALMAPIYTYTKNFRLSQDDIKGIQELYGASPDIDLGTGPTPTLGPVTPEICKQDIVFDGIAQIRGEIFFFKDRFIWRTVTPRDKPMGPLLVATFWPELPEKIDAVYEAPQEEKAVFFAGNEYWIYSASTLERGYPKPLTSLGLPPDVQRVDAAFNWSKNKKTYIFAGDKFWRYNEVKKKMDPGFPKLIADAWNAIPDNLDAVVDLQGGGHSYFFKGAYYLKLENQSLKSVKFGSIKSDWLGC
ATP-dependent molecular chaperone HSP82, sequence (C4YTQ8 whole entry): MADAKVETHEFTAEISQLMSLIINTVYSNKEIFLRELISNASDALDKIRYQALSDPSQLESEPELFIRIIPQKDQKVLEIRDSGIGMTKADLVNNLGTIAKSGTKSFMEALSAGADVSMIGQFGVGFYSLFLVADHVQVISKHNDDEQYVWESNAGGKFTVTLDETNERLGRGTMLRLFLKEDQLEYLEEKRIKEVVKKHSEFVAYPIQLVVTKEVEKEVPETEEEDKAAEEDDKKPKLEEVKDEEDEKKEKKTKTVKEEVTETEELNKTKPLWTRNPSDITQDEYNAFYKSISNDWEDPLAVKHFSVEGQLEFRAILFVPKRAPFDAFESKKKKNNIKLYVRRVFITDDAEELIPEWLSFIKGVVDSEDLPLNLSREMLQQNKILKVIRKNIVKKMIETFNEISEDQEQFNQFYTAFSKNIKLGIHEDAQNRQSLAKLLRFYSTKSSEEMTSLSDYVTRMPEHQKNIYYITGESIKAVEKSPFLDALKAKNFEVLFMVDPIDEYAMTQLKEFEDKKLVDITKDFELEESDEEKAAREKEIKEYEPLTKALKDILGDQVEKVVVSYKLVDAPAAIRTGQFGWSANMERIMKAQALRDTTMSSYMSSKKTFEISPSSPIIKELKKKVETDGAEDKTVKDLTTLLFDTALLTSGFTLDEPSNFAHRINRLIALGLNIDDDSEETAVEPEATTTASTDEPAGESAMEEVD
Beta-2 adrenergic receptor, sequence (P07550 whole entry): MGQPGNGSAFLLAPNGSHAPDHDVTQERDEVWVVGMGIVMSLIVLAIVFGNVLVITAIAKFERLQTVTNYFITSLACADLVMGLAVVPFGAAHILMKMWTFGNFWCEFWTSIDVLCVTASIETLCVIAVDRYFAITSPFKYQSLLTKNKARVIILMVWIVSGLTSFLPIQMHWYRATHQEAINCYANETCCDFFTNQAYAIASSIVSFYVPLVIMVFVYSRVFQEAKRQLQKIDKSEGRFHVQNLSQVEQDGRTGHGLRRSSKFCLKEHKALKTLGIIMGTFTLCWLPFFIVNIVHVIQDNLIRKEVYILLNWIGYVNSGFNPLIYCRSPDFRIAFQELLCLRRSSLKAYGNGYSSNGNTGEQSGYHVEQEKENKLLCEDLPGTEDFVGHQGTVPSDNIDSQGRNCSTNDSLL
Serine/threonine-protein phosphatase, sequence (B9W6M3 whole entry): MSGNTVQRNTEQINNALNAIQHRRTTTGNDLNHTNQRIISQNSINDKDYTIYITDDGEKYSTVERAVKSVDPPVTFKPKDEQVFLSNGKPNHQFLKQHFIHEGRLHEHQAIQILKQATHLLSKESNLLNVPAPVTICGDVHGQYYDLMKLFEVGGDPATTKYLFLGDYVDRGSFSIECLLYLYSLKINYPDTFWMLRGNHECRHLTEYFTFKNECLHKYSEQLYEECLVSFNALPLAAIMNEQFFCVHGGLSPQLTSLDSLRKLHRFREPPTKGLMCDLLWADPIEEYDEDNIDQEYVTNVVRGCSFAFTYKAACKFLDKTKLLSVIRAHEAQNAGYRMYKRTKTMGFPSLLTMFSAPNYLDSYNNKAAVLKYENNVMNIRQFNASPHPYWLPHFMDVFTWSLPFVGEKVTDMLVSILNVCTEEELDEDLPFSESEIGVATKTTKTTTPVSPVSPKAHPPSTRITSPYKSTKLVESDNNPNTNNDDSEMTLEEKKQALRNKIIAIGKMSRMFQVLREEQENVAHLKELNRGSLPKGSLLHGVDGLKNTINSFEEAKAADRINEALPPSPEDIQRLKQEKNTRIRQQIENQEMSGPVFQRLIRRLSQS
26S proteasome non-ATPase regulatory subunit 14, sequence (O00487 whole entry): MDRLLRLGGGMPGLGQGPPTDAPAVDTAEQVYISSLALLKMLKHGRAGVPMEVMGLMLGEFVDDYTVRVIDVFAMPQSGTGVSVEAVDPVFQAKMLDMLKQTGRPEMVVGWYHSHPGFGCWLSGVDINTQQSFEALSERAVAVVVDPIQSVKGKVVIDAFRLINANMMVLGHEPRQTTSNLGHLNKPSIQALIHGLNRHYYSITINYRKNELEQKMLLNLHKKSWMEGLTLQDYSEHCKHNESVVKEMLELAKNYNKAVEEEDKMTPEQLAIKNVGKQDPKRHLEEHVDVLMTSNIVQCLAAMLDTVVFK

CCN(CCO)c1ccc(N=Nc2cc(C)[nH]n2)cc1
EC50 [1]: 5.43 µM (active) | EC50 [2]: 4.08 µM (active) | EC50 [3]: 4.94 µM (active) | EC50 [4]: > 100 µM (active) | AC50 [5]: 3.6 µM (active) | IC50 [6]: 53 µM (active) | IC50 [7]: > 100 µM (inactive) | IC50 [8]: 61.2 µM (active)

COc1ccc(C(c2c(O)ccc3ccccc23)N2CCOCC2)c(OC)c1 (stereo unspecified)
EC50 [9]: 11.6 µM (active) | CC50 [10]: 44.3 µM (not active) | EC50 [11]: 1.82 µM (active) | EC50 [12]: 4.07 µM (active) | EC50 [13]: 3.89 µM (active) | EC50 [14]: > 180 µM (inactive) | IC50 [15]: 1.62 µM (active) | EC50 [16]: 12.5 µM (active) | EC50 [17]: > 160 µM (inactive)

CC(C)c1nnc(NC(=O)CCS(=O)(=O)c2nc(-c3cccs3)cc(C(F)(F)F)n2)s1
IC50 [18]: 1.1 µM (active) | IC50 [19]: 13.5 µM (not active) | AC50 [20]: > 120 µM (inactive) | EC50 [21]: 30.4 µM (inconclusive) | EC50 [22]: 33.7 µM (inactive) | AC50 [23]: 3.02 µM (active) | AC50 [24]: 6.01 µM (active)

COc1ccc(CCn2c(SCC(=O)Nc3cc(C)on3)nc3ccsc3c2=O)cc1OC
EC50 [25]: 12.8 µM (active) | IC50 [26]: 44 µM (inactive)
